Assay results published in the supplement of paper PMC11061612.

Tests used:
[1] = test system: U-698-M; conditions: B-Cell Non-Hodgkin's Lymphoma
Outline: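 Cancer cell lines in 1536-well plates (7.5 μl DMEM/F12 or RPMI, 10% FBS) were held 24 hours at 37°C and 5% CO2 and then dosed for 72 hours at a final DMSO of typically 0.2%. Viability was taken from CellTiter-Glo 2.0 luminescence, scaled between blank-well and DMSO-well means. Curves were fitted as two-parameter logistic models with a non-linear mixed effects model, from which the single-agent IC50 was taken.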

[2] = test system: CCK-81 (Colorectal Carcinoma); test: combination Emax (second highest fraction inhibited in the dose matrix, 72 h); higher = more inhibition; extreme values may be limits of the assay
Outline: (§1)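 Cell lines in DMEM/F12 or RPMI with 10% FBS were plated in 1536-well plates, held 24 hours at 37°C, 5% CO2, then given two-drug dose matrices for 72 hours (DMSO typically 0.2%). Viability was read by CellTiter-Glo 2.0 luminescence and scaled as inhibition from 0 (vehicle wells) to 1 (blank wells). Combination Emax is the second-highest inhibition in the matrix; Bliss excess is observed combination effect minus expected EA + EB − EA·EB, EA and EB being single-agent effects.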

[3] = test system: VCaP (Prostate Carcinoma); test: as above
Outline: as §1

[4] = test system: CAPAN-2 (Pancreatic Carcinoma); test: as above
Outline: as §1

[5] = test system: TT (Thyroid Gland Carcinoma); test: as above
Outline: as §1

[6] = test system: ONS-76 (Other Solid Carcinomas); test: as above
Outline: as §1

[7] = test system: NCI-H64 (Small Cell Lung Carcinoma); test: as above
Outline: as §1

[8] = test system: ECC10 (Gastric Carcinoma); test: as above
Outline: as §1

[9] = test system: BICR22 (Oral Cavity Carcinoma); test: as above
Outline: as §1

[10] = test system: IGR-37 (Melanoma); test: as above
Outline: as §1

[11] = test system: NCI-H1581 (Non-Small Cell Lung Carcinoma); test: as above
Outline: as §1

[12] = test system: NCI-H2066 (Squamous Cell Lung Carcinoma); test: as above
Outline: as §1

[13] = test system: NCI-H1666 (Lung Adenocarcinoma); test: as above
Outline: as §1

[14] = test system: PANC-10-05 (Pancreatic Carcinoma); test: as above
Outline: as §1

[15] = test system: NY (Osteosarcoma); test: as above
Outline: as §1

[16] = test system: KARPAS-422 (B-Cell Non-Hodgkin's Lymphoma); test: as above
Outline: as §1

[17] = test system: COLO-320-HSR (Colorectal Carcinoma); test: as above
Outline: as §1

[18] = test system: U-2-OS (Osteosarcoma); test: as above
Outline: as §1

[19] = test system: FU97 (Gastric Carcinoma); test: as above
Outline: as §1

[20] = test system: CCK-81 (Colorectal Carcinoma); test: Bliss excess, mean over the matrix (fraction); higher = more synergy
Outline: as §1

[21] = test system: VCaP (Prostate Carcinoma); test: as above
Outline: as §1

[22] = test system: CAPAN-2 (Pancreatic Carcinoma); test: as above
Outline: as §1

[23] = test system: TT (Thyroid Gland Carcinoma); test: as above
Outline: as §1

[24] = test system: ONS-76 (Other Solid Carcinomas); test: as above
Outline: as §1

[25] = test system: NCI-H64 (Small Cell Lung Carcinoma); test: as above
Outline: as §1

[26] = test system: ECC10 (Gastric Carcinoma); test: as above
Outline: as §1

[27] = test system: BICR22 (Oral Cavity Carcinoma); test: as above
Outline: as §1

[28] = test system: IGR-37 (Melanoma); test: as above
Outline: as §1

[29] = test system: NCI-H1581 (Non-Small Cell Lung Carcinoma); test: as above
Outline: as §1

[30] = test system: NCI-H2066 (Squamous Cell Lung Carcinoma); test: as above
Outline: as §1

[31] = test system: NCI-H1666 (Lung Adenocarcinoma); test: as above
Outline: as §1

[32] = test system: PANC-10-05 (Pancreatic Carcinoma); test: as above
Outline: as §1

[33] = test system: NY (Osteosarcoma); test: as above
Outline: as §1

[34] = test system: KARPAS-422 (B-Cell Non-Hodgkin's Lymphoma); test: as above
Outline: as §1

[35] = test system: COLO-320-HSR (Colorectal Carcinoma); test: as above
Outline: as §1

[36] = test system: U-2-OS (Osteosarcoma); test: as above
Outline: as §1

[37] = test system: FU97 (Gastric Carcinoma); test: as above
Outline: as §1
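Throughout, for Bliss excess, mean over the matrix: after 72 h of two-drug dosing.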

Cn1cnc2c(F)c(Nc3ccc(Br)cc3Cl)c(C(=O)NOCCO)cc21 [Selumetinib]
IC50, cell viability 72 h ([1]; max 10 µM): > 10 µM

CS(=O)(=O)CCNCc1ccc(-c2ccc3ncnc(Nc4ccc(OCc5cccc(F)c5)c(Cl)c4)c3c2)o1 [Lapatinib]
IC50, cell viability 72 h ([1]; max 10 µM): > 10 µM

CCc1c2c(nc3ccc(O)cc13)-c1cc3c(c(=O)n1C2)COC(=O)[C@]3(O)CC [SN-38]
IC50, cell viability 72 h ([1]; max 0.3 µM): 0.022 µM

COc1cc2ncnc(Nc3ccc(F)c(Cl)c3)c2cc1OCCCN1CCOCC1 [Gefitinib]
IC50, cell viability 72 h ([1]; max 10 µM): > 10 µM

CC1(C)CCC(CN2CCN(c3ccc(C(=O)NS(=O)(=O)c4ccc(NCC5CCOCC5)c([N+](=O)[O-])c4)c(Oc4cnc5[nH]ccc5c4)c3)CC2)=C(c2ccc(Cl)cc2)C1 [Venetoclax]
IC50, cell viability 72 h ([1]; max 1 µM): > 1 µM

C[C@@H]1COCCN1c1cc(C2([S@](C)(=N)=O)CC2)nc(-c2ccnc3[nH]ccc23)n1 [AZD6738]
IC50, cell viability 72 h ([1]; max 10 µM): 2.21 µM

Cc1nc(-c2cn3c(n2)-c2ccc(-c4cnn(C(C)(C)C(N)=O)c4)cc2OCC3)n(C(C)C)n1 [Taselisib]
IC50, cell viability 72 h ([1]; max 10 µM): 5.68 µM

C=CCn1c(=O)c2cnc(Nc3ccc(N4CCN(C)CC4)cc3)nc2n1-c1cccc(C(C)(C)O)n1 [AZD1775]
IC50, cell viability 72 h ([1]; max 3 µM): 0.26 µM

CN(CCO)CC[C@H](CSc1ccccc1)Nc1ccc(S(=O)(=O)NC(=O)c2ccc(N3CCC([C@@H](O)c4ccccc4-c4ccc(Cl)cc4)CC3)cc2)cc1S(=O)(=O)C(F)(F)F [AZD4320]
IC50, cell viability 72 h ([1]; max 1 µM): > 1 µM

Cc1c2c(nn1C)CSCc1cc(n(C)n1)CSc1cc(c3ccccc3c1)OCCCc1c(C(=O)O)n(C)c3c-2c(Cl)ccc13 [AZD5991]
IC50, cell viability 72 h ([1]; max 1 µM): 0.0692 µM

Cc1c2c(nn1C)CSCc1cc(n(C)n1)CSc1cc(c3ccccc3c1)OCCCc1c(C(=O)O)n(C)c3c-2c(Cl)ccc13 [AZD5991] + Nc1ccn([C@@H]2O[C@H](CO)[C@@H](O)C2(F)F)c(=O)n1 [Gemcitabine] (first compound max 1 µM, 7x7, partner max 0.3 µM)
combination Emax [2]: 0.942 | combination Emax [3]: 0.977 | combination Emax [4]: 0.101 | combination Emax [5]: 0.405 | combination Emax [6]: 0.499 | combination Emax [7]: 0.37 | combination Emax [8]: 0.935 | combination Emax [9]: 0.957 | combination Emax [10]: 0.79 | combination Emax [11]: 0.998 | combination Emax [12]: 0.184 | combination Emax [13]: 0.473 | combination Emax [14]: 0.472 | combination Emax [15]: 0.88 | combination Emax [16]: 0.979 | combination Emax [17]: 0.944 | combination Emax [18]: 0.387 | combination Emax [19]: 0.232 | Bliss excess [20]: 0.0013 | Bliss excess [21]: 0.0667 | Bliss excess [22]: -0.035 | Bliss excess [23]: -0.0048 | Bliss excess [24]: 0.0088 | Bliss excess [25]: 0.0292 | Bliss excess [26]: 0.0593 | Bliss excess [27]: -0.0254 | Bliss excess [28]: 0.011 | Bliss excess [29]: 0.0459 | Bliss excess [30]: -0.0415 | Bliss excess [31]: -0.0299 | Bliss excess [32]: -0.0263 | Bliss excess [33]: -0.0564 | Bliss excess [34]: -0.0219 | Bliss excess [35]: -0.0386 | Bliss excess [36]: -0.0017 | Bliss excess [37]: 0.0193

CN(CCO)CC[C@H](CSc1ccccc1)Nc1ccc(S(=O)(=O)NC(=O)c2ccc(N3CCC([C@@H](O)c4ccccc4-c4ccc(Cl)cc4)CC3)cc2)cc1S(=O)(=O)C(F)(F)F [AZD4320] + Nc1ccn([C@@H]2O[C@H](CO)[C@@H](O)C2(F)F)c(=O)n1 [Gemcitabine] (first compound max 1 µM, 7x7, partner max 0.3 µM)
combination Emax [2]: 0.589 | combination Emax [3]: 0.547 | combination Emax [4]: 0.586 | combination Emax [5]: 0.615 | combination Emax [6]: 0.724 | combination Emax [7]: 0.998 | combination Emax [8]: 1 | combination Emax [9]: 0.95 | combination Emax [10]: 0.872 | combination Emax [11]: 0.482 | combination Emax [12]: 0.338 | combination Emax [13]: 0.501 | combination Emax [14]: 0.582 | combination Emax [15]: 0.966 | combination Emax [16]: 0.97 | combination Emax [17]: 0.569 | combination Emax [18]: 0.501 | combination Emax [19]: 0.349 | Bliss excess [20]: -0.0153 | Bliss excess [21]: -0.0098 | Bliss excess [22]: -0.0009 | Bliss excess [23]: 0.0159 | Bliss excess [24]: 0.003 | Bliss excess [25]: 0.0845 | Bliss excess [26]: 0.0147 | Bliss excess [27]: -0.0171 | Bliss excess [28]: 0.0268 | Bliss excess [29]: 0.0326 | Bliss excess [30]: -0.0764 | Bliss excess [31]: -0.0121 | Bliss excess [32]: 0.0148 | Bliss excess [33]: 0.0595 | Bliss excess [34]: 0.067 | Bliss excess [35]: -0.078 | Bliss excess [36]: 0.0048 | Bliss excess [37]: 0.0132
